We go through three compounds from patent US20130260458A1, “METHOD OF INDUCING DIFFERENTIATION OF HUMAN PLURIPOTENT STEM CELL INTO HEPATIC PROGENITOR CELL” (NATIONAL UNIVERSITY CORPORATION CHIBA UNIVERSITY, priority 2012, published 2013).

Experiment [1] relates to Human iPS cells (201B7). In words: Induction of differentiation into hepatic progenitor cells by growth-promoting agents (real-time quantitative PCR of AFP and DLK-1). As to conditions: iPS cells transfected with FOXA2, GATA4, HEX, C/EBPα three times every three days, 8th day, n=3, ± standard error, ReproFF lane = 100; for α-fetoprotein/RPL19 ratio (mRNA expression): FIG. 3-1; for DLK-1/RPL19 ratio (mRNA expression): FIG. 3-2. The experiment is classed as cell-based. On the procedure: Human iPS cells (201B7, RIKEN cell bank) were seeded onto a matrigel-coated 6-well plate, and cultured in a medium, ReproFF in accordance with a conventional method under the following conditions: 37° C. and 5% carbon dioxide. A lipofection reagent, Lipofectamine LTX (registered trade mark, Life Technologies Japan Ltd.) was used to transfect 0.5 μg of expression plasmids of FOXA2, GATA4, HEX and C/EBPα, respectively.
As the expression vectors of the transcription factors, used were expression vectors (human TrueClone, OriGene Technologies, Inc., COSMO BIO co., ltd.) in which full-length cDNAs of human FOXA2, GATA4, HEX and CEBPA were each incorporated in the downstream of a potent-promoting agent derived from cytomegalovirus. In the human FOXA2 expression vector (catalog No. sc122913), the full-length cDNA coding human FoxA2 protein was inserted between EcoR1 and Sal1 restricted sites of pCMV6-XL5. In the human GATA4 expression vector (catalog No. sc124037), the full-length cDNA coding human GATA4 protein was inserted between EcoR1 and Sal1 restricted sites of pCMV6-XL4. In the human HEX expression vector (catalog No. sc321626), the full-length cDNA coding human HHEX protein was inserted between Sgf1 and Mlu1 restricted sites of pCMV6-AC. In the human CEBPA expression vector (catalog No. sc303472), the full-length cDNA coding human CEBPA protein was inserted between EcoR1 and Sal1 restricted sites of pCMV6-XL5.
Immediately before transfection, the medium to be used was changed to a medium obtained by adding oncostatin M (Wako Pure Chemical Industries, Ltd.), EGF (Wako Pure Chemical Industries, Ltd.) and retinoic acid (Wako Pure Chemical Industries, Ltd.) to the iPSm(−) medium. Here, the iPSm(−) medium corresponds to a medium obtained by eliminating a basic fibroblast growth factor from a medium for feeder cells of human iPS cells recommended by CiRA at Kyoto University. […]
The transfection of the transcription factors was repeated three times every three days, and, on the 8th day, RNA was extracted using Isogen (NIPPON GENE CO., LTD.). […] Then, the amount of expressed α-fetoprotein (AFP), which was an indicator of hepatic progenitor cells, was analyzed by the real-time quantitative PCR method using a real-time PCR analysis reagent, Fast SYBR Green Master Mix (trade name, Life Technologies Japan Ltd.). […] The amounts of α-fetoprotein (AFP) and Delta-like (DLK)-1 expressed were quantitatively determined as an indicator of hepatic progenitor cells by employing ribosome-related protein (RLP19) as internal standard (each group, n=3).
The real-time quantitative PCR was performed by using the following primers through a PCR cycle including 30 cycles of 5 seconds at 95° C. and 20 seconds at 60° C.

Experiment [2] has as its system Human iPS cells (201B7). In words: Expression of transcription factors in iPS cells cultured with single growth-promoting agents (RT-PCR, electrophoresis). It counts as cell-based. As to conditions: iPS cells in iPSm(−) medium with the growth-promoting agent added; PCR and electrophoresis, FIG. 2. Here is the method:
Reverse transcriptase (Life Technologies Japan Ltd.) was used to synthesize cDNAs of iPS cells, fetal hepatic cells and adult hepatic cells from 3 μg of RNA. The cDNAs were subjected to polymerase chain reaction (PCR) using the following primers to GATA4, FOXA2, HEX, C/EBPα and C/EBPβ, respectively, and to electrophoresis using 2% low-melting agarose (Lonza) and 1×TAE, for investigations on the expression of GATA4, FOXA2, HEX, C/EBPα and C/EBNβ in the iPS cells, fetal hepatic cells and adult hepatic cells.
After electrophoresis, the 2% low-melting agarose was irradiated with ultraviolet rays at 254 nm from a UV transilluminator (UVP LLC, NLMS-20E), and a Polaroid photograph (FUJIFILM Corporation, FP-3000B) thereof was taken with a gel camera (Funakoshi DS-300) to analyze an electrophoretic pattern.
PCR cycles performed included 30 cycles of thermal denaturation: 1 minute at 94° C.; annealing: 1 minute and elongation reaction: 1 minute at 72° C.
Human iPS cells (201B7, RIKEN cell bank) were seeded onto a matrigel-coated 6-well plate, and cultured in a feeder-less medium, ReproFF (trade name, Reprocell Inc.) for culture of stem cells maintained in an undifferentiated state, without using a feeder cell, under conventional conditions: 37° C. and 5% carbon dioxide.
A medium obtained by adding a 20% knock-out serum replacement (Life Technologies Japan Ltd.), 10% Minimum Essential Amino Acids (Life Technologies Japan Ltd.), 2 mM of L-glutamine (Life Technologies Japan Ltd.) and 1 mM of 2-mercaptoethanol to a D-MEM/F12 medium (Dulbecco's Modified Eagle Medium-F12 medium, Sigma-Aldrich Japan) was used as an iPSm(−) medium.
The following growth-promoting agents were added to the iPSm(−) medium, and SOX-17, GATA6, FOXA2, GATA4, HEX, TTR and C/EBPα were expressed in a manner similar to that in Experiment 1.
As the growth-promoting agents, added were bFGF (basic fibroblast growth factor, Wako Pure Chemical Industries, Ltd.), BMP (bone morphogenetic protein)-4 (Wako Pure Chemical Industries, Ltd.), oncostatinM (Wako Pure Chemical Industries, Ltd.), an epidermal growth factor (EGF, Wako Pure Chemical Industries, Ltd.), a nerve growth factor (NGF, R & D Systems, Inc.), TGF-β, (transform growth factor-β, R& D Systems, Inc.), retinoic acid (Sigma-Aldrich Japan) and a hepatic cell growth factor (HGF, Sigma-Aldrich Japan).
RT-PCR to SOX-17, GATA6 and TTR was performed under the following conditions.

Consider `CC1=C(/C=C/C(C)=C/C=C/C(C)=C/C(=O)O)C(C)(C)CCC1` [retinoic acid], for which, in the experiment on Human iPS cells (201B7) [1], the “α-fetoprotein/RPL19 ratio (mRNA expression)” value was 133±58 and the “DLK-1/RPL19 ratio (mRNA expression)” value turned out to be 79±40.
In the case of “TGF-β: transform growth factor-β, R&D Systems”, in the experiment on Human iPS cells (201B7) [2], the “expression of C/EBPα” value was “not observed to be expressed”, the “expression of FOXA2” value is on record as “not observed to be expressed”, the “expression of GATA4” value is listed as “not observed to be expressed” and the “expression of GATA6” value is on record as “observed to be expressed”. Moreover, the “expression of HEX” value in the experiment with Human iPS cells (201B7) [2] is listed as “not observed to be expressed”.
In the case of `C[C@@H]1C[C@H]2[C@@H]3CCC4=CC(=O)C=C[C@]4(C)[C@@]3(F)[C@@H](O)C[C@]2(C)[C@@]1(O)C(=O)CO` [dexamethasone], in the experiment on Human iPS cells (201B7) [1], the “α-fetoprotein/RPL19 ratio (mRNA expression)” value came to 50.1±5 and the “DLK-1/RPL19 ratio (mRNA expression)” value was 208±54.
